PubChem BioAssay AID248 (DTP/NCI, 2004)
Several values for one entry are separate records, joined by “and”; a condition that tells them apart may be missing. Equal values may be shown once. Inconclusive results and toxic doses are left out.

Test system: L1210 leukemia ip in BDF1 mice, survival T/C
Test: NCI In Vivo Anticancer Drug Screen. Data for tumor model L1210 Leukemia (intraperitoneal) in B6D2F1 (BDF1) mice
Conditions: endpoint: mean survival time, higher = longer survival
How it was run: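 Tumor cells were implanted, animals were treated, and survival was followed. The result divides the treated measurement by the vehicle-control measurement.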

[1] = dose: 25.0 mg/kg/injection, schedule: Q01DX009 (ip), vehicle: Klucel (hydroxypropylcellulose) (HPC)
[2] = dose: 50.0 mg/kg/injection, schedule: Q01DX009 (ip), vehicle: Klucel (hydroxypropylcellulose) (HPC)
[3] = dose: 100.0 mg/kg/injection, schedule: Q01DX001 (ip), vehicle: other
[4] = dose: 200.0 mg/kg/injection, schedule: Q01DX001 (ip), vehicle: other
[5] = dose: 400.0 mg/kg/injection, schedule: Q01DX001 (ip), vehicle: other
[6] = dose: 100.0 mg/kg/injection, schedule: Q01DX009 (ip), vehicle: saline with Tween-80
[7] = dose: 200.0 mg/kg/injection, schedule: Q01DX009 (ip), vehicle: saline with Tween-80
[8] = dose: 400.0 mg/kg/injection, schedule: Q01DX009 (ip), vehicle: saline with Tween-80
[9] = dose: 100.0 mg/kg/injection, schedule: Q01DX009 (ip), vehicle: Klucel (hydroxypropylcellulose) (HPC)
[10] = dose: 100.0 mg/kg/injection, schedule: Q04DX003 (ip), vehicle: Klucel (hydroxypropylcellulose) (HPC)
[11] = dose: 200.0 mg/kg/injection, schedule: Q01DX009 (ip), vehicle: Klucel (hydroxypropylcellulose) (HPC)
[12] = dose: 200.0 mg/kg/injection, schedule: Q04DX003 (ip), vehicle: Klucel (hydroxypropylcellulose) (HPC)
[13] = dose: 400.0 mg/kg/injection, schedule: Q01DX009 (ip), vehicle: Klucel (hydroxypropylcellulose) (HPC)
[14] = dose: 400.0 mg/kg/injection, schedule: Q04DX003 (ip), vehicle: Klucel (hydroxypropylcellulose) (HPC)
[15] = dose: 100.0 mg/kg/injection, schedule: Q04DX003 (ip), vehicle: saline with Tween-80
[16] = dose: 200.0 mg/kg/injection, schedule: Q04DX003 (ip), vehicle: saline with Tween-80
[17] = dose: 400.0 mg/kg/injection, schedule: Q04DX003 (ip), vehicle: saline with Tween-80
[18] = dose: 100.0 mg/kg/injection, schedule: Q01DX001 (ip), vehicle: saline
[19] = dose: 200.0 mg/kg/injection, schedule: Q01DX001 (ip), vehicle: saline
[20] = dose: 400.0 mg/kg/injection, schedule: Q01DX001 (ip), vehicle: saline
[21] = dose: 100.0 mg/kg/injection, schedule: Q01DX001 (ip), vehicle: saline with Tween-80
[22] = dose: 200.0 mg/kg/injection, schedule: Q01DX001 (ip), vehicle: saline with Tween-80
[23] = dose: 400.0 mg/kg/injection, schedule: Q01DX001 (ip), vehicle: saline with Tween-80

CCCCNc1c(C(=O)OCC)cnc2c1cnn2CC
T/C (dose: 12.0 mg/kg/injection, schedule: Q01DX009 (ip), vehicle: Klucel (hydroxypropylcellulose) (HPC)): 100 % of control
T/C [1]: 96 % of control
T/C [2]: 106 % of control
T/C (dose: 75.0 mg/kg/injection, schedule: Q01DX009 (ip), vehicle: Klucel (hydroxypropylcellulose) (HPC)): 96 % of control

CC(CCCCCOC(=O)Nc1ccccc1)OC(=O)Nc1ccccc1 (stereo unspecified)
T/C [3]: 98 % of control
T/C [4]: 87 % of control
T/C [5]: 96 % of control

Nc1ccc(Br)cc1
T/C [6]: 100 % of control
T/C [7]: 95 % of control
T/C [8]: 99 % of control

Nc1nc(N)c(-c2ccc(Cl)c(Cl)c2)c(C[P+](c2ccccc2)(c2ccccc2)c2ccccc2)n1
T/C (dose: 75.0 mg/kg/injection, schedule: Q01DX001 (ip), vehicle: saline): 97 % of control

Cc1ccc(SSc2ccc(C)cc2[N+](=O)[O-])c([N+](=O)[O-])c1
T/C [9]: 92 % of control
T/C [10]: 97 % of control
T/C [11]: 91 % of control
T/C [12]: 90 % of control
T/C [13]: 90 % of control
T/C [14]: 94 % of control

COc1ccc(C2(c3ccccc3)OC(=O)c3ccccc32)c2ccccc12 (stereo unspecified)
T/C [3]: 110 % of control
T/C (dose: 100.0 mg/kg/injection, schedule: Q04DX003 (ip), vehicle: other): 104 % of control
T/C [4]: 92 % of control
T/C (dose: 200.0 mg/kg/injection, schedule: Q04DX003 (ip), vehicle: other): 100 % of control
T/C [5]: 86 % of control
T/C (dose: 400.0 mg/kg/injection, schedule: Q04DX003 (ip), vehicle: other): 111 % of control

CSc1ccc(NC(=O)Nc2cccc(Cl)c2C)cc1
T/C (dose: 50.0 mg/kg/injection, schedule: Q04DX003 (ip), vehicle: saline with Tween-80): 94 % of control
T/C [6]: 96 % of control and 101 % of control
T/C (dose: 100.0 mg/kg/injection, schedule: Q04DX002 (ip), vehicle: saline with Tween-80): 93 % of control and 104 % of control
T/C [15]: 92 % of control
T/C [7]: 100 % of control and 104 % of control
T/C (dose: 200.0 mg/kg/injection, schedule: Q04DX002 (ip), vehicle: saline with Tween-80): 93 % of control and 97 % of control
T/C [16]: 87 % of control
T/C [8]: 104 % of control and 106 % of control
T/C (dose: 400.0 mg/kg/injection, schedule: Q04DX002 (ip), vehicle: saline with Tween-80): 107 % of control and 88 % of control
T/C [17]: 88 % of control

O=C(Nc1ccccc1Cl)N(Cc1ccccc1)c1ccccc1
T/C [9]: 99 % of control
T/C [10]: 96 % of control
T/C [11]: 91 % of control
T/C [12]: 94 % of control
T/C [13]: 94 % of control
T/C [14]: 96 % of control

C=C1CC2CC(C)CCC2OC1=O (stereo unspecified)
T/C [18]: 102 % of control
T/C [19]: 98 % of control
T/C [20]: 98 % of control

CCCN(CCC)C(=O)SCC
T/C [21]: 101 % of control
T/C [15]: 101 % of control and 105 % of control
T/C [22]: 97 % of control
T/C [16]: 100 % of control and 101 % of control
T/C [23]: 97 % of control
T/C [17]: 110 % of control and 117 % of control

CCCCCCC(C)O[Si](C)c1ccc(C)cc1 (stereo unspecified)
T/C [6]: 103 % of control
T/C [15]: 113 % of control
T/C [7]: 90 % of control
T/C [16]: 97 % of control
T/C [8]: 97 % of control
T/C [17]: 87 % of control

O=C(/C=C/c1ccc([N+](=O)[O-])o1)c1cccc([N+](=O)[O-])c1
T/C [1]: 100 % of control
T/C [2]: 103 % of control

CCOC(=O)C1C(CCC#N)C(=O)CCC1(C#N)c1ccccc1 (stereo unspecified)
T/C (dose: 100.0 mg/kg/injection, schedule: Q04DX003 (ip), vehicle: acetone): 98 % of control
T/C (dose: 200.0 mg/kg/injection, schedule: Q04DX003 (ip), vehicle: acetone): 95 % of control
T/C (dose: 400.0 mg/kg/injection, schedule: Q04DX003 (ip), vehicle: acetone): 98 % of control

CCCCCCCCCCCS(=O)(=O)C(CCOS(C)(=O)=O)COS(C)(=O)=O (stereo unspecified)
T/C [9]: 93 % of control
T/C [10]: 100 % of control
T/C [11]: 95 % of control
T/C [12]: 98 % of control
T/C [14]: 96 % of control

CC(Cc1ccccc1)Nc1ccccn1 (stereo unspecified)
T/C (dose: 75.0 mg/kg/injection, schedule: Q01DX001 (ip), vehicle: other): 97 % of control
T/C (dose: 150.0 mg/kg/injection, schedule: Q01DX001 (ip), vehicle: other): 97 % of control
T/C (dose: 300.0 mg/kg/injection, schedule: Q01DX001 (ip), vehicle: other): 95 % of control

CN(C)C(=O)Nc1cccc(OC(=O)NC2CCCCC2)c1
T/C [21]: 97 % of control
T/C [22]: 92 % of control
T/C [23]: 87 % of control

O=S1(=O)CCS(=O)(=O)C12CCCCC2
T/C [18]: 98 % of control
T/C [19]: 107 % of control
T/C [20]: 90 % of control

CN(C)CCN1C(=O)c2ccccc2N(C)c2ccccc21
T/C (dose: 25.0 mg/kg/injection, schedule: Q04DX003 (ip), vehicle: saline): 96 % of control
T/C (dose: 50.0 mg/kg/injection, schedule: Q04DX003 (ip), vehicle: saline): 96 % of control

COC(=O)CCC(C)C1CCC2C3CCC4CC(OC(C)=O)CCC4(C)C3CCC12C (stereo unspecified)
T/C [21]: 95 % of control
T/C [22]: 95 % of control
T/C [23]: 89 % of control

CCP(=O)(CC)CC
T/C (dose: 1000.0 mg/kg/injection, schedule: Q01DX Z (ip), vehicle: saline): 104 % of control
T/C (dose: 2000.0 mg/kg/injection, schedule: Q01DX Z (ip), vehicle: saline): 101 % of control

O=C(O)C1CCCCC1C(=O)N(Cc1ccccc1)Cc1ccccc1 (stereo unspecified)
T/C [9]: 98 % of control
T/C [11]: 102 % of control
T/C [13]: 90 % of control

CC1=C/C(=N\N2CCCCCC2)C(C(O)(C(F)(F)F)C(F)(F)F)C(C)(C)C1 (stereo unspecified)
T/C (dose: 50.0 mg/kg/injection, schedule: Q01DX009 (ip), vehicle: saline with Tween-80): 90 % of control
T/C [6]: 96 % of control
T/C [7]: 86 % of control
T/C [8]: 88 % of control

NC(=O)c1cccs1
T/C (dose: 5.0 mg/kg/injection, schedule: Q01DX001 (ip), vehicle: saline): 98 % of control
T/C (dose: 10.0 mg/kg/injection, schedule: Q01DX001 (ip), vehicle: saline): 98 % of control
T/C (dose: 20.0 mg/kg/injection, schedule: Q01DX001 (ip), vehicle: saline): 98 % of control
T/C (dose: 40.0 mg/kg/injection, schedule: Q01DX001 (ip), vehicle: saline): 102 % of control

O=C(Nc1cccc(C2=NCCN2)c1)Nc1ccc(NC(=O)Nc2cccc(C3=NCCN3)c2)c(Cl)c1
T/C (dose: 0.25 mg/kg/injection, schedule: Q01DX Z (ip), vehicle: carboxymethylcellulose (CMC)): 100 % of control
T/C (dose: 0.5 mg/kg/injection, schedule: Q01DX Z (ip), vehicle: carboxymethylcellulose (CMC)): 105 % of control
T/C (dose: 1.0 mg/kg/injection, schedule: Q01DX Z (ip), vehicle: carboxymethylcellulose (CMC)): 104 % of control
T/C (dose: 2.0 mg/kg/injection, schedule: Q01DX Z (ip), vehicle: carboxymethylcellulose (CMC)): 110 % of control
T/C (dose: 16.0 mg/kg/injection, schedule: Q01DX Z (ip), vehicle: carboxymethylcellulose (CMC)): 207 % of control
T/C (dose: 16.0 mg/kg/injection, schedule: Q01DX Z (ip), vehicle: water): 218 % of control
T/C (dose: 31.0 mg/kg/injection, schedule: Q01DX Z (ip), vehicle: water): 286 % of control
T/C (dose: 62.0 mg/kg/injection, schedule: Q01DX Z (ip), vehicle: water): 173 % of control
T/C (dose: 62.0 mg/kg/injection, schedule: Q01DX Z (oral), vehicle: carboxymethylcellulose (CMC)): 105 % of control
T/C (dose: 125.0 mg/kg/injection, schedule: Q01DX Z (oral), vehicle: carboxymethylcellulose (CMC)): 94 % of control
T/C (dose: 250.0 mg/kg/injection, schedule: Q01DX Z (oral), vehicle: carboxymethylcellulose (CMC)): 97 % of control
T/C (dose: 500.0 mg/kg/injection, schedule: Q01DX Z (oral), vehicle: carboxymethylcellulose (CMC)): 97 % of control

O=[N+]([O-])c1cc(C(F)(F)F)ccc1/C=C/c1ccccc1Br
T/C [15]: 105 % of control
T/C [16]: 97 % of control
T/C [17]: 101 % of control
